According to patent US11926619B2, “Certain pladienolide compounds and methods of use” (EISAI R&D MANAGEMENT CO., LTD., priority 2018, dated 2024):

Tests used:
Format in all cases: cell-based
[1] = tested on: WiDr cells (colon cancer cells; wildtype SF3B1); assay: Cell viability assay (CellTiter-Glo, 72 hr), WiDr cells; details: Homo sapiens; WiDr cells (wildtype SF3B1); read-out: WiDr GI50
Protocol: (§1) Cells (WiDr and Panc05.04 obtained from ATCC) were seeded in 96-well plates, with 2000 cells/100 μL/well, and incubated overnight. Spent media was removed, and fresh media containing 9 different concentrations of compound (100 μL/well) were added, with DMSO concentration from compound stock solution adjusted to be 0.1%. Each compound treatment was done in duplicate or triplicate at each concentration.
(§2) Another plate with cells seeded was dedicated as a time zero (Tz) plate, to which was added 0.1% DMSO in media (100 μL/well) followed by CellTiter-Glo® reagent (Promega Corporation, Madison, Wisconsin) (50 μL/well) for ATP measurement as a surrogate of cell viability. Average value from measurement of multiple wells of this plate is used as Tz. Compound-treated plates were incubated for 72 hr at 37° C. Then, CellTiter-Glo® reagent (50 μL/well) was added and ATP was measured. Average value from measurement of the duplicate or triplicate compound-treated wells is used as Ti, and seeded plates with medium having 0.1% DMSO without compound is used as control growth (C).
(§3) Percentage growth inhibition/Percentage viability was calculated as:
(§4) [(Ti−Tz)/(C−Tz)]×100 for concentrations for which Ti>/=Tz
(§5) [(Ti−Tz)/Tz]×100 for concentrations for which Ti<Tz.
(§6) *time zero (Tz), control growth (C), and test growth in the presence of compound (Ti) Percentage growth inhibition/Percentage viability are plotted versus compound concentration to determine Emax.
Emax refers to the maximum achievable response to a compound in a tested dose range, with a negative value indicating cellular lethality. A larger negative Emax value indicates greater cellular lethality for a particular compound. […]

[2] = tested on: WiDr-R cells (colon cancer cells; chemically-induced SF3B1 R1074H mutant); assay: Cell viability assay (CellTiter-Glo, 72 hr), resistant WiDr-R cells (counter-screen); details: WiDr-R cells (SF3B1 R1074H mutation, resistant); read-out: WiDr-R GI50
Protocol: as §1, §2, §3, §4, §5, §6
(§7) Emax refers to the maximum achievable response to a compound in a tested dose range, with a negative value indicating cellular lethality. A larger negative Emax value indicates greater cellular lethality for a particular compound.
The counter-screening of compounds in this viability assay with a “resistant” WiDr-R cell line may indicate whether these compounds have off-target effect(s).

[3] = tested on: Panc 05.04 cells (pancreatic cancer cells; Q699H and K700E mutations in SF3B1); assay: Cell viability assay (CellTiter-Glo, 72 hr), Panc 05.04 cells; details: Panc 05.04 cells (mutant SF3B1); for Emax: maximum achievable response in tested dose range, negative value = cellular lethality, read-out: Panc 05.04 (mt SF3B1 cells) Emax (%); for GI50: read-out: Panc 05.04 (mt SF3B1 cells), GI50
Protocol: as §1, §2, §3, §4, §5, §6, §7

| Structure (SMILES) | GI50 [1] [nM] | GI50 [2] [nM] | Emax [3] [%] | GI50 [3] [nM] |
| --- | --- | --- | --- | --- |
| C/C(=C\C=C\[C@@H](C)c1ccccn1)[C@H]1OC(=O)C[C@H](O)CC[C@@](C)(O)[C@@H](OC(=O)N2CCN(C3CCCCCC3)C(C)C2)/C=C/[C@@H]1C (stereo partly drawn) | 133 | > 1000 | -60.4 | 126 |
| C/C(=C\C=C\[C@@H](C)COC(=O)N1CC[C@H](C)C1)[C@H]1OC(=O)C[C@H](O)CC[C@@](C)(O)[C@@H](OC(=O)N2CCN(C3CCCCCC3)CC2)/C=C/[C@@H]1C | 6.2 | > 1000 | -93.6 | 2.59 |
| C/C(=C\C=C\C(C)c1ccnc(N2CC[C@@H](O)C2)n1)[C@H]1OC(=O)CCCCC[C@@H](OC(=O)N2CCN(C3CCCCCC3)CC2)/C=C/[C@@H]1C (stereo partly drawn) | 455 | > 10000 | -94.8 | 475 |
| C/C(=C\C=C\[C@@H](C)COC(=O)N1CC[C@H](F)C1)[C@H]1OC(=O)C[C@H](O)CC[C@@](C)(O)[C@@H](OC(=O)N2CCN(C)CC2)/C=C/[C@@H]1C | 2.84 | > 1000 | -90.2 | 4.86 |
| C/C(=C\C=C\[C@@H](C)COC(=O)N1CC[C@@H](NC(=O)OC(C)(C)C)C1)[C@H]1OC(=O)C[C@H](O)CC[C@@](C)(O)[C@@H](OC(=O)N2CCN(C3CCCCCC3)CC2)/C=C/[C@@H]1C | 28 | > 1000 | -59.6 | 59.4 |
| C/C(=C\C=C\[C@@H](C)COC(=O)N1CCCC1C(C)O)[C@H]1OC(=O)C[C@H](O)CC[C@@](C)(O)[C@@H](OC(=O)N2CCN(C)CC2)/C=C/[C@@H]1C (stereo partly drawn) | 14.7 | > 1000 | -85.4 | 10.1 |
| C/C(=C\C=C\[C@@H](C)COC(=O)N1C[C@H](O)[C@@H](O)C1)[C@H]1OC(=O)C[C@H](O)CC[C@@](C)(O)[C@@H](OC(=O)N2CCN(C3CCCCCC3)CC2)/C=C/[C@@H]1C | 294 | > 1000 | -95.4 | 74.6 |
| C/C(=C\C=C\[C@@H](C)COC(=O)n1ccc2ccccc21)[C@H]1OC(=O)C[C@H](O)CC[C@@](C)(O)[C@@H](OC(=O)N2CCN(C)CC2)/C=C/[C@@H]1C | 36.6 | > 1000 | -92.8 | 30.5 |
| CC(=O)O[C@H]1/C=C/[C@H](C)[C@@H](/C(C)=C/C=C/[C@](C)(O)CCc2ccccc2)OC(=O)C[C@H](O)CC[C@@]1(C)O | 167 | > 10000 | -55.4 | 314 |
| C/C(=C\C=C\[C@@H](C)COC(=O)N1CC[C@@H](Oc2nnnn2-c2ccccc2)C1)[C@H]1OC(=O)CCCC[C@@](C)(O)[C@@H](OC(=O)N2CCN(C)CC2)/C=C/[C@@H]1C | 31.6 | > 1000 | -94.9 | 37.3 |
| COC(=O)OC[C@H](C)/C=C/C=C(\C)[C@H]1OC(=O)C[C@H](O)CC[C@@](C)(O)[C@@H](OC(=O)N2CCN(C)CC2)/C=C/[C@@H]1C | 14.7 | > 1000 | -95.9 | 5.11 |
| CC(=O)O[C@H]1/C=C/[C@H](C)[C@@H](/C(C)=C/C=C/C(C)(O)c2cccs2)OC(=O)C[C@H](O)CC[C@@]1(C)O (stereo partly drawn) | 473 | > 10000 | 32.8 | 3790 |
| CCC(C)N(C)C(=O)OC[C@H](C)/C=C/C=C(\C)[C@H]1OC(=O)C[C@H](O)CC[C@@](C)(O)[C@@H](OC(C)=O)/C=C/[C@@H]1C (stereo partly drawn) | 308 | > 10000 | – | 587 |
| C/C(=C\C=C\[C@@H](C)COC(=O)N1CCC[C@H]1C)[C@H]1OC(=O)CCCCC[C@@H](OC(=O)N2CCN(C)CC2)/C=C/[C@@H]1C | 3.44 | 681 | -65.3 | 7.73 |
| CC(=O)O[C@H]1/C=C/[C@H](C)[C@@H](/C(C)=C/C=C/C(C)(O)c2ccccc2)OC(=O)C[C@H](O)CC[C@@]1(C)O (stereo partly drawn) | 657 | > 10000 | 13.3 | 1500 |
| C/C(=C\C=C\[C@@H](C)COC(=O)N1CCc2ccccc21)[C@H]1OC(=O)C[C@H](O)CC[C@@](C)(O)[C@@H](OC(=O)N2CCN(C)CC2)/C=C/[C@@H]1C | 19.8 | > 1000 | -97 | 16.7 |
